Each structure is given as a SMILES string. Values joined by “and” are separate entries in the source; they are usually repeats but may differ in a detail not shown here. Equal values may be shown once.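 96-well plates; 48 h exposure; 5 concentrations. Endpoints by linear interpolation between flanking doses. Not reached: highest tested concentration assigned. The concentration for 50% growth inhibition is given as GI50. The concentration for full growth arrest is given as TGI.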

The first assay concerns CAKI-1 renal. Nature of the assay: NCI anticancer screen, dose series, 48 h.
`COc1ccc(Cl)cc1Nc1nc(C(F)(F)F)ccc1C(=O)NN`: the GI50 was 2.74 µM and the TGI turned out to be 22.7 µM.

Take `CC(C)c1ccc2nc3ccc(C(=O)NCCN(C)C)cn3c(=O)c2c1`: the TGI turned out to be 45 µM.

As for `CNC(=O)Nc1ccc(-c2nc(N3CCOCC3)nc3c2cnn3C2CCOCC2)cc1`, the GI50 was 0.227 µM and the TGI came to 2.62 µM.

Consider `NCCCCNCCCNC(=O)CNC(=O)CC(O)C(N)CCCC(NC(=O)C(CN)NC(=O)C(O)CNC(=O)CC(N)c1ccc(O)cc1)C(=O)O` (configuration not stated), for which the TGI was more than 10 µM.

Turning to `N/C(=N\OC(=O)c1ccccc1)C(C(=O)NOC(=O)c1ccccc1)C1CCCCC1` (configuration not stated), the GI50 is 0.5 µM and the TGI worked out at 1.73 µM.

`CCOc1ccc(N=Nc2ccc3cc(/C(C)=N/NC(=O)/C(C#N)=C\c4ccc(N(CCC#N)CCC#N)cc4)c(=O)oc3c2)cc1` returned a TGI of more than 10 µM.

With `O=C(O)c1cc[c]([Hg][S]c2ncnc3nc[nH]c23)cc1`, the GI50 is 4.96 µM and the TGI came out at 21.1 µM.

With `O=C(Nc1ccc(OC(F)(F)F)cc1)c1sccc1NCc1ccnc2ccccc12`, the GI50 is 1.75 µM and the TGI was 19.3 µM.

Take `CCN(CC)c1ccc(NC(=S)NN(C)C)cc1`: the TGI was more than 10 µM.

Regarding `Nc1cc(N)c2nc(-c3ccccc3)c(Oc3ccc(F)cc3)nc2c1`, the GI50 is 19.4 µM and the TGI stood at 37 µM.

As for `CN1CCCN(CCNc2nccc(-c3c(-c4cccc(O)c4)nc4sccn34)n2)S1(=O)=O`, the GI50 is 2.25 µM and 2.15 µM; the TGI is 23.5 µM and 16.3 µM.

As for `CCOC(=O)c1c(NC(=O)c2ccc(C(C)C)cc2)sc2c(CN(C)C)c(O)ccc12`, the GI50 is 1.73 µM and the TGI came to 3.44 µM.

On to `COc1ccc(C(=O)N2c3ccccc3Sc3ccccc32)c(F)c1`, for which the GI50 is 0.584 µM and the TGI is more than 100 µM.

`CC(O)CNC1=CC(=O)C(=O)c2ccccc21` (configuration not stated) came in with a TGI of 33.5 µM.

For `CC1(C)N=C(N)N=C(N)N1c1ccc(CCc2ccccc2)c(Cl)c1`, the GI50 was 3.99 µM and the TGI is more than 48.8 µM.

For the compound `Cc1ccc(C(=O)Nc2ccc(CN3CCN(C)CC3)c(C(F)(F)F)c2)cc1C#Cc1cnc(N)c2ccc(F)cc12`, the GI50 is 0.216 µM and the TGI is 1.29 µM.

For the compound `CC1(C)CCC(C)(C)c2cc(C(=O)Nc3ccc(C(=O)O)cc3)ccc21`, the TGI stood at 37.2 µM.

Compound `CC1=C(C(=O)NC2CCCCC2)CC(C(=O)NC2CCCCC2)=C(C)N1` showed a TGI of more than 100 µM.

The next assay relates to SNB-75 CNS. Briefly: NCI anticancer screen, dose series, 48 h.
Regarding `COc1ccc(Cl)cc1Nc1nc(C(F)(F)F)ccc1C(=O)NN`, the GI50 was 16.6 µM and the TGI is more than 100 µM.

With `CC(C)c1ccc2nc3ccc(C(=O)NCCN(C)C)cn3c(=O)c2c1`, the TGI stood at 22.5 µM.

As to `CNC(=O)Nc1ccc(-c2nc(N3CCOCC3)nc3c2cnn3C2CCOCC2)cc1`, the GI50 was 0.045 µM and the TGI amounted to 0.448 µM.

In turn, `NCCCCNCCCNC(=O)CNC(=O)CC(O)C(N)CCCC(NC(=O)C(CN)NC(=O)C(O)CNC(=O)CC(N)c1ccc(O)cc1)C(=O)O` (configuration not stated) gave a TGI of more than 10 µM.

As for `N/C(=N\OC(=O)c1ccccc1)C(C(=O)NOC(=O)c1ccccc1)C1CCCCC1` (configuration not stated), the GI50 is 2.79 µM and the TGI turned out to be 11.9 µM.

`CCOc1ccc(N=Nc2ccc3cc(/C(C)=N/NC(=O)/C(C#N)=C\c4ccc(N(CCC#N)CCC#N)cc4)c(=O)oc3c2)cc1` showed a TGI of more than 10 µM.

In the case of `O=C(O)c1cc[c]([Hg][S]c2ncnc3nc[nH]c23)cc1`, the GI50 was 1.45 µM and the TGI turned out to be 19.4 µM.

Regarding `O=C(Nc1ccc(OC(F)(F)F)cc1)c1sccc1NCc1ccnc2ccccc12`, the GI50 is 1.88 µM and the TGI was determined as 26.5 µM.

In the case of `CCN(CC)c1ccc(NC(=S)NN(C)C)cc1`, the TGI was more than 10 µM.

Turning to `Nc1cc(N)c2nc(-c3ccccc3)c(Oc3ccc(F)cc3)nc2c1`, the GI50 was 23.5 µM and the TGI worked out at 49.4 µM.

With `CN1CCCN(CCNc2nccc(-c3c(-c4cccc(O)c4)nc4sccn34)n2)S1(=O)=O`, the GI50 was 1.47 µM and 2.19 µM; the TGI is 75 µM and > 100 µM.

Take `CCOC(=O)c1c(NC(=O)c2ccc(C(C)C)cc2)sc2c(CN(C)C)c(O)ccc12`: the GI50 was 1.47 µM and the TGI came to 3.39 µM.

Turning to `COc1ccc(C(=O)N2c3ccccc3Sc3ccccc32)c(F)c1`, the GI50 is 0.288 µM and the TGI was 34 µM.

`CC(O)CNC1=CC(=O)C(=O)c2ccccc21` (configuration not stated): the TGI came to 29.8 µM.

Regarding `CC1(C)N=C(N)N=C(N)N1c1ccc(CCc2ccccc2)c(Cl)c1`, the GI50 was 0.517 µM and the TGI was 12.7 µM.

On to `Cc1ccc(C(=O)Nc2ccc(CN3CCN(C)CC3)c(C(F)(F)F)c2)cc1C#Cc1cnc(N)c2ccc(F)cc12`, for which the GI50 was 0.256 µM and the TGI came to 0.863 µM.

For `CC1(C)CCC(C)(C)c2cc(C(=O)Nc3ccc(C(=O)O)cc3)ccc21`, the TGI was more than 100 µM.

`CC1=C(C(=O)NC2CCCCC2)CC(C(=O)NC2CCCCC2)=C(C)N1` gave a TGI of 64.9 µM.

In a further assay the test system is SR leukemia. Briefly: NCI anticancer screen, dose series, 48 h.
`COc1ccc(Cl)cc1Nc1nc(C(F)(F)F)ccc1C(=O)NN`: the GI50 was 0.404 µM and the TGI was 3.56 µM.

`CC(C)c1ccc2nc3ccc(C(=O)NCCN(C)C)cn3c(=O)c2c1` gave a TGI of 63 µM.

`CNC(=O)Nc1ccc(-c2nc(N3CCOCC3)nc3c2cnn3C2CCOCC2)cc1`: the GI50 was 0.239 µM and the TGI was more than 19.8 µM.

For `NCCCCNCCCNC(=O)CNC(=O)CC(O)C(N)CCCC(NC(=O)C(CN)NC(=O)C(O)CNC(=O)CC(N)c1ccc(O)cc1)C(=O)O` (configuration not stated), the TGI is more than 10 µM.

With `N/C(=N\OC(=O)c1ccccc1)C(C(=O)NOC(=O)c1ccccc1)C1CCCCC1` (configuration not stated), the GI50 was 1.99 µM and the TGI is 4.99 µM.

`CCOc1ccc(N=Nc2ccc3cc(/C(C)=N/NC(=O)/C(C#N)=C\c4ccc(N(CCC#N)CCC#N)cc4)c(=O)oc3c2)cc1` came in with a TGI of more than 10 µM.

`O=C(O)c1cc[c]([Hg][S]c2ncnc3nc[nH]c23)cc1`: the GI50 is 1.32 µM and the TGI was 7.16 µM.

In the case of `O=C(Nc1ccc(OC(F)(F)F)cc1)c1sccc1NCc1ccnc2ccccc12`, the GI50 was 4.25 µM and the TGI was more than 100 µM.

`CCN(CC)c1ccc(NC(=S)NN(C)C)cc1`: the TGI is more than 10 µM.

The values are drawn from PubChem BioAssay (NCI).
